Results from patent US9289402B2, “Metal entrapped bioactive composites” (YISSUM RESEARCH DEVELOPMENT COMPANY OF THE HEBREW …, priority 2010, dated 2016).

Tests used:
[1] = system: Escherichia coli strain MG1655; experiment: Bactericidal kinetic test towards E. coli MG1655; type: cell-based; conditions: HEPES buffer 0.04 M pH 7.4, 26 °C, ca. 10^6 CFU/ml, concentrations of Table 1 (composite 50.0 ppm, AgNO3 0.1 ppm, CHD 0.75 ppm)
Method: A wild-type Escherichia coli strain MG1655 was used as a target organism to evaluate the bactericidal efficacy of the active ingredients i.e. CHD, metallic and ionic Ag and the CHD@Ag composite. Bacteria were maintained on MacConkey agar plates at […]. Prior to each experiment, an overnight culture was prepared by seeding single colonies into 30 ml of Luria Bertani (LB) broth at 37° C. with shaking. This overnight culture was then washed three times by centrifugation (10 min, 4850 rpm, at 25° C.) and resuspended in HEPES buffer (0.04M, pH 7.4). The resulting washed pellet was resuspended in HEPES and brought to an optical density (OD590) of 0.3 which corresponds to ca. 10^8 CFU/ml. Enumeration of bacteria was performed by serial dilution and plating via the pour-plate technique. The inoculated plates were incubated at 37° C. for 24 h and bacterial concentrations were determined by enumerating the resulting CFUs. The bactericidal kinetic tests were carried out in five acid-washed 500 ml Erlenmeyer flasks filled with 200 ml HEPES buffer. The flasks were capped with dense paper caps to allow oxygen supply. Typically, the active ingredients at the desired concentrations and combinations were added first and then 2.0 ml of the E. coli suspension was added to final concentration of ca. 10^6 CFU/ml. The active ingredients included one of the following: CHD@Ag composite, MeOH-extracted composite, AgNO3 solution, CHD solution and combinations thereof in final concentrations and the amounts which are summarized in Table 1. [table] The vessels were kept in an incubated shaker at 26° C. under dark conditions. The disinfection kinetics were followed by sequentially sampling 1.0 ml aliquots form the vessels at the designated times. These samples were neutralized by dilution (1:1) with a neutralizing solution (0.2% w/w sodium thioglycolate, 1.9% w/w sodium thiosulphate, 1% w/w Tween 80, 1.4% w/w lecithin) for 5 min. The efficiency of this neutralization procedure was validated in separate control experiments. […] The plates were incubated at 37° C. for 24 h and bacterial colonies were counted. […]

P. aeruginosa PU21 = experiment: Bactericidal kinetic test towards P. aeruginosa PU21; type: cell-based, Pseudomonas aeruginosa; conditions: FIG. 8

Structure (SMILES)	biocidal activity towards E. coli MG1655 [1]	biocidal activity towards E. coli MG1655 ([1]; listed as CHD solution)	bactericidal effect towards P. aeruginosa PU21 (P. aeruginosa PU21)
O=[N+]([O-])[O-].[Ag+] [Ag^+, AgNO3]	no biocidal activity	–	–
N=C(NCCCCCCNC(=N)NC(=N)Nc1ccc(Cl)cc1)NC(=N)Nc1ccc(Cl)cc1.O=C(O)[C@H](O)[C@@H](O)[C@H](O)[C@H](O)CO.O=C(O)[C@H](O)[C@@H](O)[C@H](O)[C@H](O)CO [CHD, Chlorhexidine digluconate]	only slightly affected	only very weak biocidal activity	weak bactericidal effect
